We go through 15 compounds from patent publication US6825191B2, “Benzodiazepine derivatives” (Ajinomoto Co., Inc., priority 2000, dated 2004).

Structures can show the parent of a compound that is named as a salt. Some results are limits rather than exact numbers.

Assay [1] deals with T1, activated human blood coagulation factor X (Homo sapiens, UniProt P00742).
T1 construct: purchased Enzyme Research Co
Put plainly: Determination of activity of inhibiting the activated blood-coagulation factor X (chromogenic substrate, initial rate). Particulars: negative logarithm of concentration inhibiting 50% of initial rate, tris hydrochloride buffer pH 8.4, room temperature; for IC50: read-out: Activity of inhibiting activated blood coagulation factor X (pIC50) (converted). The assay is classed as biochemical. As for the experimental part: Determination of Activity of inhibiting the Activated Blood-coagulation Factor X
130 μl of 100 mM tris hydrochloride buffer adjusted to pH 8.4 was added to 10 μl of an aqueous solution of a compound to be tested. Then 10 μl of a 0.5 unit/ml solution of activated human blood coagulation factor X (a product of Enzyme Research Co.) in tris hydrochloride buffer of pH 8.4 was added to the resultant mixture. After the incubation at room temperature for 10 minutes, 50 μl of a solution of N-benzoyl-L-isoleucyl-L-glutamyl-glycyl-L-arginyl-P-nitroanilide hydrochloride (a product of Peptide Institute Inc.) adjusted to 0.8 mM with tris hydrochloride (pH 8.4) was added thereto. The a absorbance was determined and then the initial reaction rate was determined. A control was prepared in the same manner as that described above except that the solution of the compound to be tested was replaced with 10 μl of tris hydrochloride buffer adjusted to pH 8.4. The absorbance was determined with MICROPLATE READER Model 3550-UV (a product of BIO RAD) at a wave length of 405 nm at intervals of 15 seconds for 16 minutes.

A further assay deals with T2, human thrombin (Homo sapiens, UniProt P00734).
T2 construct: solution of human thrombin (a product of SIGMA Co.); purchased SIGMA Co
The assay is described as follows: Determination of thrombin-inhibiting activity (chromogenic substrate S-2238, initial rate). The settings on record: negative logarithm of concentration inhibiting 50% of initial rate, tris hydrochloride buffer pH 8.4, room temperature; for IC50: read-out: Thrombin-inhibiting activity (pIC50) (converted). The assay is classed as biochemical. Here is the method: Determination of Thrombin-inhibiting Activity
130 μL of 100 mM tris hydrochloride buffer adjusted to pH 8.4 was added to 10 μl of an aqueous solution of a test compound. Then 10 μl of a solution of human thrombin (a product of SIGMA Co.) adjusted to 2 units/ml with tris hydrochloride buffer of pH 8.4 was added to the resultant mixture. After the incubation at room temperature for 10 minutes, 50 μl of a solution of D-phenylalanine-L-pipecolyl-L-arginine-P-nitroanilide dihydrochloride (S-2238; a product of Daiichi Kagaku Yakuhin Co.) adjusted to 0.4 mM with tris hydrochloride buffer of pH 8.4 was added thereto. The absorbance was determined and then the initial reaction rate was determined. A control was prepared in the same manner as that described above except that the solution of the compound to be tested was replaced with 10 μl of tris hydrochloride buffer adjusted to pH 8.4. The absorbance was determined with MICROPLATE READER Model 3550-UV (a product of BIO RAD) at a wave length of 405 nm at intervals of 15 seconds for 16 minutes. The negative logarithm (pIC50) of a concentration of the test compound which inhibits 50% of the activity (initial rate) of the thrombin in the absence of the test compound was determined, and employed as the index of the activity of inhibiting thrombin.

A further assay has as its system blood plasma. The assay is described as follows: Determination of blood anticoagulating activity by prothrombin time (PT) determination method. The assay is classed as biochemical, human. The settings on record: negative logarithm of concentration which elongated PT of the control to twice as long; blood plasma of healthy people. As for the experimental part:
Determination of Blood Anticoagulating Activity
The blood anticoagulating activity was determined by a prothrombin time (PT) determination method. The PT was determined as follows: The blood was taken from healthy people. 3.8% aqueous trisodium citrate solution was added to the blood in a volume ratio of 1:10. The blood plasma was separated by the centrifugation. 5 μl of DMSO solution containing a test compound was added to 45 μl of the blood plasma. After the incubation apt room temperature for 2 minutes, a test tube containing the blood plasma solution was placed in Sysmex CA-3000 fully automatic blood coagulation determination device (a product of Toa Medical Electronics Co., Ltd), and incubated at 37° C. for 3 minutes. 100 μl of Sysmex PT II (rabbit brain tissue thromboplastin, 13.2 mM calcium chloride; a product of Toa Medical Electronics Co., Ltd) was fed into the test tube. PT was automatically determined with the device. A sample containing 5 μl of DMSO in place of the solution of the test compound was used as the control. The negative logarithm (pPT2) of the concentration of the test compound which elongated PT of the control to the twice as long was determined, and employed as the index of the blood anticoagulating activity.

T1 sequence (P00742 235-488 limits assumed): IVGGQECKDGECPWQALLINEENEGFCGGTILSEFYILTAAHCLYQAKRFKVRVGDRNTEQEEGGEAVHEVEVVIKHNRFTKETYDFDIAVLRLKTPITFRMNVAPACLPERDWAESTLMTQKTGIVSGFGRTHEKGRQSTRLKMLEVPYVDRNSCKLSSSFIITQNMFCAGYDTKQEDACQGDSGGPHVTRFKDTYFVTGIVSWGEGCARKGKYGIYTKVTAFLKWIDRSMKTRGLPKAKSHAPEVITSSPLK
T1 sequence (P00742 41-179 partner limits assumed): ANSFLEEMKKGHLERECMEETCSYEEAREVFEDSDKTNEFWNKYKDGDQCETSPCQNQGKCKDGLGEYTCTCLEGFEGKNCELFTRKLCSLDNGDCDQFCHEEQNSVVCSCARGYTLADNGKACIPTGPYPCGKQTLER

For the compound `CC(C)N1CCC(CCN2C(=O)CN(C(=O)c3ccc(Cl)cc3)Cc3ccccc32)CC1.O=C(O)C(F)(F)F` [Compd. of Ex. 169, 4-(4-chlorobenzoyl)-1-[2-(1-isopropyl-4-piperidinyl)ethyl]-1,3,4,5-tetrahydrobenzo[e][1,4]diazepin-2-on trifluoroacetate], the figures for the IC50 (in assay [1]; on human thrombin) were 316 nM and greater than 100000 nM, respectively. In addition, in the assay on blood plasma, the “Human blood anticoagulating activity (pPT2)” value was 5.4.

On to `O=C(c1ccc(CN2C(=O)CN(C(=O)c3ccc(Cl)cc3)Cc3ccc(CCCO)cc32)cc1)N1CC=CC1` [Compd. of Ex. 90], for which the IC50 is 39.8 nM in assay [1] and 79400 nM at human thrombin. For the same compound, the “Human blood anticoagulating activity (pPT2)” value with blood plasma was determined as 5.0.

As to `O=C(O)C(F)(F)F.O=C(c1ccc(CN2C(=O)CN(C(=O)c3ccc(Cl)cc3)Cc3ccccc32)nc1)N1CC=CC1` [Compd. of Ex. 181, 4-(4-chlorobenzoyl)-1-[(5-(2,5-dihydro-1H-pyrrol-1-ylcarbonyl)-2-pyridinyl)methyl]-1,3,4,5-tetrahydrobenzo[e][1,4]-diazepin-2-on trifluoroacetate], the IC50 is 79.4 nM in assay [1] and greater than 100000 nM at human thrombin. The “Human blood anticoagulating activity (pPT2)” value in the assay with blood plasma came out at 5.3.

For `CN1CCN=C1c1ccc(CN2C(=O)CN(C(=O)c3ccc(Cl)cc3)Cc3ccccc32)cc1.O=C(O)C(F)(F)F` [Compd. of Ex. 125, 4-(4-chlorobenzoyl)-1-[4-(1-methyl-4,5-dihydro-1H-imidazol-2-yl)benzyl]-1,3,4,5-tetrahydrobenzo[e][1,4]-diazepin-2-on trifluoroacetate], the IC50 is 251 nM in assay [1] and greater than 100000 nM on human thrombin. Moreover, in the assay on blood plasma, the “Human blood anticoagulating activity (pPT2)” value turned out to be 5.6.

Regarding `CC(=N)N1CCC(Oc2ccc(CN3C(=O)CN(C(=O)c4ccc(Cl)cc4)Cc4ccc(C(=O)O)cc43)cc2)CC1.O=C(O)C(F)(F)F` [Compd. of Ex. 43, 4-(4-chlorobenzoyl)-2-oxo-1-[4-(1-(1-acetimidoyl)-4-piperidyloxy)benzyl]-2,3,4,5-tetrahydro-1H-benzo[e][1,4]-diazepine-8-carboxylic acid trifluoroacetate], the “Activity of inhibiting activated blood coagulation factor X (pIC50)” value in assay [1] amounted to 6.9. For the same compound, the “Thrombin-inhibiting activity (pIC50)” value on human thrombin was less than 4.0. Moreover, the “Human blood anticoagulating activity (pPT2)” value in the assay with blood plasma came out at 5.2.

`O=C(O)C(F)(F)F.O=C(c1ccc(Cl)cc1)N1CC(=O)N(CC2CCN(C3CCCCC3)CC2)c2ccccc2C1` [Compd. of Ex. 143, 4-(4-chlorobenzoyl)-1-[(1-cyclohexyl-4-piperidinyl)methyl]-1,3,4,5-tetrahydrobenzo[e][1,4]diazepin-2-on mono(trifluoroacetate)]: the IC50 in assay [1] is 316 nM; at human thrombin, 63100 nM. Besides, the “Human blood anticoagulating activity (pPT2)” value in the assay on blood plasma worked out at 5.4.

“4-(4-chlorobenzoyl)-1-[4-(1-acetoimidoyl)-4-piperidyloxy]benzyl]-1,3,4,5-tetrahydrobenzo[e][1,4]diazepin-2-on trifluoroacetate [Compd. of Ex. 27]”: the “Activity of inhibiting activated blood coagulation factor X (pIC50)” value in assay [1] turned out to be 6.4. Besides, on human thrombin, the “Thrombin-inhibiting activity (pIC50)” value is recorded as less than 4.0. For the same compound, the “Human blood anticoagulating activity (pPT2)” value in the assay on blood plasma is 4.8.

On to `O=C(c1ccc(CN2C(=O)CN(C(=O)c3ccc(Cl)cc3)Cc3ccccc32)cc1)N1CC=CC1` [Compd. of Ex. 49, 1-[4-(2,5-dihydro-1H-pyrrol-1-ylcarbonyl)benzyl]-4-(4-chlorobenzoyl)-1,3,4,5-tetrahydrobenzo[e][1,4]-diazepin-2-on], for which the IC50 was 31.6 nM in assay [1] and 50100 nM at human thrombin. Moreover, in the assay on blood plasma, the “Human blood anticoagulating activity (pPT2)” value worked out at 5.0.

Regarding `CN1CCN=C1c1ccc(CN2C(=O)CN(C(=O)c3ccc(Cl)cc3)Cc3c(Cl)cccc32)cc1.O=C(O)C(F)(F)F` [Compd. of Ex. 122, 6-chloro-4-(4-chlorobenzoyl)-1-[4-(1-methyl-4,5-dihydro-1H-imidazol-2-yl)benzyl]-1,3,4,5-tetrahydrobenzo[e][1,4]-diazepin-2-on trifluoroacetate], the IC50 in assay [1] is 50.1 nM; on human thrombin, greater than 100000 nM. Besides, the “Human blood anticoagulating activity (pPT2)” value in the assay on blood plasma came to 5.6.

On to `O=C(CCc1ccc2c(c1)N(Cc1ccc(C(=O)N3CC=CC3)cc1)C(=O)CN(C(=O)c1ccc(Cl)cc1)C2)N1CCOCC1` [Compd. of Ex. 68, 4-(4-chlorobenzoyl)-8-(3-morpholine-4-yl-3-oxopropyl)-1-[4-(2,5-dihydro-1H-pyrrol-1-ylcarbonyl)benzyl]-1,3,4,5-tetrahydrobenzo[e][1,4]diazepin-2-on], for which the IC50 in assay [1] was 39.8 nM; on human thrombin, 63100 nM. Moreover, in the assay on blood plasma, the “Human blood anticoagulating activity (pPT2)” value was determined as 5.2.

Consider `CN1CCN=C1c1ccc(CN2C(=O)CN(C(=O)c3ccc(Cl)cc3)Cc3ccc(C(=O)O)cc32)cc1.O=C(O)C(F)(F)F` [Compd. of Ex. 203, 4-(4-chlorobenzoyl)-2-oxo-1-[4-(1-methyl-4,5-dihydro-1H-imidazol-2-yl)benzyl]-2,3,4,5-tetrahydro-1H-benzoyl[e][1,4]-diazepine-8-carboxylic acid trifluoroacetate], for which the “Activity of inhibiting activated blood coagulation factor X (pIC50)” value in assay [1] stood at 7.1. At human thrombin, the “Thrombin-inhibiting activity (pIC50)” value was less than 4.0. The “Human blood anticoagulating activity (pPT2)” value in the assay with blood plasma is 5.5.

On to `CC(C)N1CCN(C(=O)CCc2ccc3c(c2)N(Cc2ccc(C(=O)N4CC=CC4)cc2)C(=O)CN(C(=O)c2ccc(Cl)cc2)C3)CC1.O=C(O)C(F)(F)F` [Compd. of Ex. 115, 4-(4-chlorobenzoyl)-1-[4-(2,5-dihydro-1H-pyrrol-1-ylcarbonyl)benzyl]-8-[3-(4-isopropyl-1-piperazinyl)-3-oxo-propyl]-1,3,4,5-tetrahydrobenzo[e][1,4]diazepin-2-on trifluoroacetate], for which the IC50 in assay [1] was 63.1 nM; at human thrombin, 39800 nM. For the same compound, the “Human blood anticoagulating activity (pPT2)” value in the assay with blood plasma was 5.4.

For the compound `CN1CCN=C1c1ccc(CN2C(=O)CN(C(=O)c3ccc(Cl)cc3)Cc3ccc(CCC(=O)N4CCOCC4)cc32)cc1.O=C(O)C(F)(F)F` [Compd. of Ex. 144, 4-(4-chlorobenzoyl)-1-[4-(1-methyl-4,5-dihydro-1H-imidazol-2-yl)benzyl]-8-[3-(4-morpholinyl)-3-oxopropyl]-1,3,4,5-tetrahydrobenzo[e][1,4]diazepin-2-on mono(trifluoroacetate)], the IC50 is 200 nM in assay [1] and 79400 nM at human thrombin. The “Human blood anticoagulating activity (pPT2)” value in the assay on blood plasma is given as 5.6.

Regarding `O=C(O)CCc1ccc2c(c1)N(Cc1ccc(C(=O)N3CC=CC3)cc1)C(=O)CN(C(=O)c1ccc(Cl)cc1)C2` [Compd. of Ex. 65, 3-[4-(4-chlorobenzoyl)-2-oxo-1-[4-(2,5-dihydro-1H-pyrrol-1-ylcarbonyl)benzyl]-2,3,4,5-tetrahydro-1H-benzo[e][1,4]-diazepin-8-yl]propionic acid], the IC50 in assay [1] was 39.8 nM. Moreover, the “Human blood anticoagulating activity (pPT2)” value in the assay with blood plasma worked out at 4.7.

For `O=C(c1ccc(Cl)s1)N1CC(=O)N(CC2CCN(c3ccncc3)CC2)c2ccccc2C1` [Compd. of Ex. 24, 4-(5-chlorothiophene-2-carbonyl)-1-[1-(4-pyridyl)-4-piperidylmethyl]-1,3,4,5-tetrahydrobenzo[e][1,4]diazepin-2-on trifluoroacetate], the IC50 was 794 nM in assay [1] and greater than 100000 nM on human thrombin.
